{"source": "patent US20150225454A1", "about": "“TETRABRANCHED PEPTIDES AND ANALOGUES AS A NEW CLASS OF ANTIMICROBIALS AND THEIR PREPARATION THEREOF” (priority 2012, published 2015)", "key": {"C. albicans [1]": {"system": "C. albicans", "experiment": "Measurement of extracellular cations (ICP-OES)", "assay_type": "cell-based", "procedure": "Overnight cultured late logarithmic phase C. albicans was harvested by centrifugation, washed 5 times with 10 mM HEPES (pH 7.0), resuspended in the same buffer and adjusted to an OD600=0.4. To 5 ml of this suspension, B4010 (final concentration 5.5 μM) was added and incubated at 37° C. for 2 h. The mixture was centrifuged at 3,000 g and the presence of K^+, Ca^2+ and Mg^2+ in the supernatant was estimated by Perkin Elmer Dual-view Optima 5300 DV inductively coupled plasma-optical emission spectrometry (ICP-OCS Massachusetts, USA) available at CMMAC facilities (Department of Chemistry, National University of Singapore)."}, "IOBA-NHC cells": {"system": "IOBA-NHC cells", "assay_type": "cell-based, human", "details": "24 h incubation; read-out: EC50 (concentration that reduces the viable cells by 50%)", "method_in_brief": "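Subconfluent (~70%) IOBA-NHC conjunctival cells, passages 50–80, seeded ~10,000/well and grown 24 h at 37 °C in supplemented DMEM/F12 with 10% FBS. Exposed to peptide at 0.22–225 μM; cytotoxicity followed over time by MultiTox-Fluor […] fluorescence (ex 485/em 520 nm).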"}, "C. albicans [2]": {"system": "C. albicans", "experiment": "microbe, parasite or virus in culture", "assay_type": "cell-based", "method_in_brief": "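Yeast inoculum at starting OD600 ~0.08 in one-sixth-diluted Sabouraud's Dextrose broth, exposed to serially diluted peptide at final 0.4-22 μM. OD600 monitored every 30 min with shaking for 24/48 h at 37° C. MIC = lowest concentration giving complete inhibition, judged visually and by OD600; triplicates.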"}, "C. albicans [3]": {"system": "C. albicans", "experiment": "Candidacidal activity (cell viability) in the presence of metal ions", "assay_type": "cell-based", "details": "5.5 μM", "procedure": "To study the effects of metal ions on viability, the broth solution containing C. albicans (OD600=0.4-0.6) was adjusted to appropriate final concentrations of metal ions, incubated with 5.5 μM of B4010 for 6 h and the cell viability was determined as before after 48 h."}, "[4]": {"experiment": "Calcein release from fungal model membrane SUVs", "details": "peptide:lipid ratio 1:30 and 1:15", "procedure": "For the preparation of PC/PE/PI or PS/Erg SUV, the lipids were dissolved in chloroform/methanol (2:1, v/v) in a glass tube. Ergosterol was dissolved in same solvent and added to lipid mixture to make final ergosterol content of 15 wt %. The Lipid-ergosterol mixture was dried using nitrogen gas to form lipid layer. The film was hydrated in a buffer containing 20 mM PBS (pH 7), vortexed and sonicated. Each cycle of sonication (5 sec, 40° C.) is followed by freezing in liquid nitrogen and thawing on a water bath kept at 37° C. The procedure was repeated 5-6 times until an optically clear dispersion appeared. The SUV was divided into two parts. To the first part 50 mM calcein was added and incubated for 1 h. The excess calcein was removed by injecting 100 μL of the calcein-loaded SUV's into a Ultrahydrogel™ 250 (7.8 mm×300 mm) column equilibrated with 20 mM PBS (pH 7.0) and eluted isochratically at a flow rate of 1 ml/min for 1.5 column volumes. The calcein-loaded liposomes were mixed with calcein-free liposome (1:1) to adjust final liposome concentration. Peptide concentration was added to obtain 1:30 or 1:15 peptide:liposome ratio. Changes in the fluorescence signal after addition of peptide or Triton X-100 was measured on a PTI spectrofluorometer, using an excitation wavelength of 480 nm and emission wavelength of 512 nm. The Percentage calcein released at each time point was calculated using the equation: […]\nSimilar protocol was followed for the preparation of PC/Cholesterol SUVs."}, "C. albicans (ATCC 10231)": {"system": "C. albicans (ATCC 10231)", "experiment": "SYTOX Green (SG) uptake assay", "assay_type": "cell-based"}, "[5]": {"experiment": "Acute in vivo toxicity in mice", "parameters": "species or system C57BL6 mice", "procedure": "Acute toxicity of B4010 was assessed with C57BL6 (6-8 weeks old) wild type mice. Two healthy wild type mice were chosen for each route of administration. B4010 was delivered through intra-peritoneal (200 mg/kg) or (100 mg/kg) intra-venous routes. Two animals were used for each administration and monitored through 24/48 h to determine mortality, or signs of toxicity."}, "[6]": {"experiment": "SDS-PAGE pull down assay with cell wall polysaccharides", "assay_type": "binding", "details": "chitin or β-D-glucan, 5.5-22 μM, 2 h, 37° C.", "procedure": "In another study to probe the mechanism of action, the affinity of B4010 for insoluble polysaccharides such as chitin and β-D-glucan, the major component of fungal cell walls was examined. B4010 (5.5-22 μM) was incubated with chitin (from shrimp shells) or β-D-glucan for 2 h at 37° C. The mixture was centrifuged at 10,000 g and the supernatant was analyzed by SDS-PAGE (4-20%). A control experiment without chitin/β-D-glucan was also performed to quantify peptide binding to the carbohydrate polymers."}}, "note": "Where a SMILES comes first, the peptide text is derived from it. Bridges are numbered along the chain shown (N, C = ends). Roman numbers before positions name the chains, in order.", "data": [{"smiles": "CC(C)[C@H](NC(=O)[C@H](CCCCN)NC(=O)[C@H](CCCNC(=N)N)NC(=O)CNC(=O)[C@@H](N)CCCNC(=N)N)C(=O)N[C@H](C(=O)N[C@@H](CCCNC(=N)N)C(=O)N[C@@H](CCCNC(=N)N)C(=O)NCCCC[C@H](NC(=O)[C@H](CCCNC(=N)N)NC(=O)[C@H](CCCNC(=N)N)NC(=O)[C@@H](NC(=O)[C@@H](NC(=O)[C@H](CCCCN)NC(=O)[C@H](CCCNC(=N)N)NC(=O)CNC(=O)[C@@H](N)CCCNC(=N)N)C(C)C)C(C)C)C(=O)NCCCC[C@H](NC(=O)[C@H](CCCCNC(=O)[C@H](CCCNC(=N)N)NC(=O)[C@H](CCCNC(=N)N)NC(=O)[C@@H](NC(=O)[C@@H](NC(=O)[C@H](CCCCN)NC(=O)[C@H](CCCNC(=N)N)NC(=O)CNC(=O)[C@@H](N)CCCNC(=N)N)C(C)C)C(C)C)NC(=O)[C@H](CCCNC(=N)N)NC(=O)[C@H](CCCNC(=N)N)NC(=O)[C@@H](NC(=O)[C@@H](NC(=O)[C@H](CCCCN)NC(=O)[C@H](CCCNC(=N)N)NC(=O)CNC(=O)[C@@H](N)CCCNC(=N)N)C(C)C)C(C)C)C(=O)N[C@@H](CCCCN)C(=O)O)C(C)C", "note": "[Peptide B4010] (I: H-RGRKVVRRKKK-OH / II: H-RGRKVVRRK / III: H-RGRKVVRR / IV: H-RGRKVVRR; amide I:9-IV:C, I:10-II:C, II:9-III:C; N-terminus and C-terminus assumed)", "values": [{"measurement": "increase in K+- and Ca2+-ions", "setting": "C. albicans [1]", "value": 2, "unit": "fold"}, {"measurement": "calcium concentration in supernatant", "setting": "C. albicans [1]; 5.5 μM, 2 h", "value": "5.8 ± 1.3", "unit": "µM"}, {"measurement": "levels of Na+ and Mg2+ ions", "setting": "C. albicans [1]; 5.5 μM, 2 h", "value": "no significant changes"}, {"measurement": "potassium concentration in supernatant", "setting": "C. albicans [1]; 5.5 μM, 2 h", "value": "104 ± 4.2", "unit": "µM"}, {"measurement": "EC50", "setting": "IOBA-NHC cells", "value": 220, "unit": "µM"}, {"measurement": "MIC for two C. albicans clinical isolates", "setting": "C. albicans [2]", "value": 0.34, "unit": "µM"}, {"measurement": "MIC values, C. albicans", "setting": "C. albicans [2]", "value": "0.37 to 1.4", "unit": "µM"}, {"measurement": "decrease in MIC compared to the co-valent dimer", "setting": "C. albicans [2]", "value": "4-10 fold"}, {"measurement": "activity superior to natamycin", "setting": "C. albicans [2]; ATCC reference and clinical isolates", "value": "2-4 times"}, {"measurement": "candidacidal activity", "setting": "C. albicans [3]; high concentration of KCl", "value": "slight decrease in the candidacidal activity"}, {"measurement": "cell viability", "setting": "C. albicans [3]; presence of monovalent and divalent cations", "value": "complete loss of viable cells"}, {"measurement": "calcein release", "setting": "[4]", "value": "about 68%"}, {"measurement": "SG uptake (permeation)", "setting": "C. albicans (ATCC 10231); 1×MIC", "value": 24, "unit": "%"}, {"measurement": "cells membrane compromised", "setting": "C. albicans (ATCC 10231); 2×MIC, 10 mins", "value": "About 70%"}, {"measurement": "dye uptake", "setting": "C. albicans (ATCC 10231); 4×MIC, within 25 mins", "value": "> 90", "unit": "%"}, {"measurement": "SG uptake (permeation)", "setting": "C. albicans (ATCC 10231); ½×MIC", "value": 13, "unit": "%"}, {"measurement": "mortality, morbidity or toxicity", "setting": "[5]; IP 200 mg/kg", "value": "no sign of mortality, morbidity or toxicity"}, {"measurement": "mortality, morbidity or toxicity", "setting": "[5]; IV 100 mg/kg", "value": "no sign of mortality, morbidity or toxicity"}, {"measurement": "affinity for cell wall polysaccharides (coprecipitation)", "setting": "[6]", "value": "no affinity"}]}]}
